Measured values published in US20260176320A1, “MODULATORS OF G-PROTEIN COUPLED RECEPTORS” (priority 2018, published 2026).
Read-outs that look alike come from different tables or passages of the source.

Experiments:
Format in all cases: cell-based
GLP-1R [1] = target: T1, GLP-1R (Homo sapiens, UniProt P43220); assay: HitHunter cAMP assay (GLP-1R); settings: Table 3A, cAMP; for Emax: read-out: (Emax) GLP-1R
Outline: (§1)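 Agonist stimulation lasts 30 min at room temperature on 10,000 cells per well, with phosphodiesterase blocked by 625 μM IBMX. Accumulated cAMP is quantified by competitive antibody luminescence after overnight development.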

GIP-R = target: T2, GIP-R (Homo sapiens, UniProt P48546); assay: HitHunter cAMP assay (GIP-R); settings: Table 3A, cAMP; for Emax: read-out: (Emax) GIP-R
T2 sequence (P48546 22-466): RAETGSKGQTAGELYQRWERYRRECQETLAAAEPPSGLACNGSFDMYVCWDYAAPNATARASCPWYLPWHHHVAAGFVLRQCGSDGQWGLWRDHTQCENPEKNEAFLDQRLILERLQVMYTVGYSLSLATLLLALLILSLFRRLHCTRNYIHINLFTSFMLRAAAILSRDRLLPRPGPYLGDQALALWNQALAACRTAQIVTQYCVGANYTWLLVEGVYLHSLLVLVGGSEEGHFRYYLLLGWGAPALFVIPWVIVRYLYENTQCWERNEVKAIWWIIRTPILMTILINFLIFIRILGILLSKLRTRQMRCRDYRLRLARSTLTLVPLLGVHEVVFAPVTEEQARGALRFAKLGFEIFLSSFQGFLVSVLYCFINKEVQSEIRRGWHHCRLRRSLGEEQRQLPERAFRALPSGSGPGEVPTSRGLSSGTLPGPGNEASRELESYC
Outline: as §1

GLP-1R [2] = target: T1, GLP-1R; assay: PathHunter β-arrestin assay
Outline: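 Recruitment of β-arrestin is measured by luminescence after cells, plated overnight, receive serially diluted agonist for 90 min at 37 °C in medium with 0.2% BSA. Detection reagent then develops for 3 h at room temperature, protected from light.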

[3] = PathHunter β-arrestin assay, read-out: β-arrestin activity EC50

T1 sequence (P43220 24-463): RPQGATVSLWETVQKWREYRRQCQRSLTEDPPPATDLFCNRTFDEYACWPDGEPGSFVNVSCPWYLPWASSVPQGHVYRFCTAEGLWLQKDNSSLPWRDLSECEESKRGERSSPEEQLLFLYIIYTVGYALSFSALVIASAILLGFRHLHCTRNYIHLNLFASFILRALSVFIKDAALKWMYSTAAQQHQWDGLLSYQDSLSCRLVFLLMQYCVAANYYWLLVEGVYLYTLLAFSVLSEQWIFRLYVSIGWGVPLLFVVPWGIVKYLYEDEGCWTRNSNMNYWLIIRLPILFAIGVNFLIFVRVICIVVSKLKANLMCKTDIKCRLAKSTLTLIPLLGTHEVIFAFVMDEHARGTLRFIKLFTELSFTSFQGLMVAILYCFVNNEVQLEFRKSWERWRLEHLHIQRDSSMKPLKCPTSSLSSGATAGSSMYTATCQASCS

Structure (SMILES)	EC50 (GLP-1R [1]; EC50 GLP-1R/nM) [nM]	Emax (GLP-1R [1]) [%]	EC50 (GIP-R; EC50 GIP-R/nM) [nM]	Emax (GIP-R) [%]	EC50 (GLP-1R [2]) [µM]	EC50 (GLP-1R [1]; read-out: EC50 GLP-1R/nM) [nM]	EC50 (GIP-R; read-out: EC50 GIP-R/nM) [nM]	EC50 (GLP-1R [2]; [3]) [µM]
CCCCCCCCCCCCCCCC(=O)N[C@@H](CCC(=O)NCCCC[C@H](NC(=O)[C@H](CO)NC(=O)[C@@H]1CCCN1C(=O)[C@@H]1CCCN1C(=O)[C@@H]1CCCN1C(=O)[C@H](C)NC(=O)CNC(=O)[C@H](CO)NC(=O)[C@H](CO)NC(=O)[C@@H]1CCCN1C(=O)CNC(=O)CNC(=O)[C@H](C)NC(=O)[C@H](CC(C)C)NC(=O)[C@H](CC(C)C)NC(=O)[C@H](Cc1c[nH]c2ccccc12)NC(=O)[C@H](CC(N)=O)NC(=O)[C@@H](NC(=O)[C@H](Cc1ccccc1)NC(=O)[C@H](CCC(=O)O)NC(=O)C(C)(C)NC(=O)[C@H](C)NC(=O)[C@H](C)NC(=O)[C@H](CCC(N)=O)NC(=O)[C@H](CCCCN)NC(=O)[C@H](CC(=O)O)NC(=O)[C@H](CC(C)C)NC(=O)[C@H](Cc1ccc(O)cc1)NC(=O)[C@@H](NC(=O)[C@H](CO)NC(=O)[C@H](Cc1ccc(O)cc1)NC(=O)[C@H](CC(=O)O)NC(=O)[C@H](CO)NC(=O)[C@@H](NC(=O)[C@H](Cc1ccccc1)NC(=O)[C@@H](NC(=O)CNC(=O)[C@H](CCC(=O)O)NC(=O)CSCC(=O)NCCn1ccc(=O)[nH]c1=O)[C@@H](C)O)[C@@H](C)O)[C@@H](C)CC)C(C)C)C(N)=O)C(=O)O [Compound 239]	0.1 to 1	100	10 to 100	46	> 1	–	–	–
CCCCCCCCCCCCCCCC(=O)N[C@@H](CCC(=O)NCCCC[C@H](NC(=O)[C@H](CO)NC(=O)[C@@H]1CCCN1C(=O)[C@@H]1CCCN1C(=O)[C@@H]1CCCN1C(=O)[C@H](C)NC(=O)CNC(=O)[C@H](CO)NC(=O)[C@H](CO)NC(=O)[C@@H]1CCCN1C(=O)CNC(=O)CNC(=O)[C@H](C)NC(=O)[C@H](CC(C)C)NC(=O)[C@H](CC(C)C)NC(=O)[C@H](Cc1c[nH]c2ccccc12)NC(=O)[C@H](CC(N)=O)NC(=O)[C@@H](NC(=O)[C@H](Cc1ccccc1)NC(=O)[C@H](CCC(=O)O)NC(=O)C(C)(C)NC(=O)[C@H](C)NC(=O)[C@H](C)NC(=O)[C@H](CCC(N)=O)NC(=O)[C@H](CCCCN)NC(=O)[C@H](CC(=O)O)NC(=O)[C@H](CC(C)C)NC(=O)[C@H](Cc1ccc(O)cc1)NC(=O)[C@@H](NC(=O)[C@H](CO)NC(=O)[C@H](Cc1ccc(O)cc1)NC(=O)[C@H](CC(=O)O)NC(=O)[C@H](CO)NC(=O)[C@@H](NC(=O)[C@H](Cc1ccccc1)NC(=O)[C@@H](NC(=O)CNC(=O)[C@H](CCC(=O)O)NC(=O)CSCC(=O)NCCn1c(C)cccc1=O)[C@@H](C)O)[C@@H](C)O)[C@@H](C)CC)C(C)C)C(N)=O)C(=O)O [Compound 240]	0.1 to 1	97	1 to 10	60	> 1	–	–	–
CCCCCCCCCCCCCCCC(=O)N[C@@H](CCC(=O)NCCCC[C@H](NC(=O)[C@H](CO)NC(=O)[C@@H]1CCCN1C(=O)[C@@H]1CCCN1C(=O)[C@@H]1CCCN1C(=O)[C@H](C)NC(=O)CNC(=O)[C@H](CO)NC(=O)[C@H](CO)NC(=O)[C@@H]1CCCN1C(=O)CNC(=O)CNC(=O)[C@H](C)NC(=O)[C@H](CC(C)C)NC(=O)[C@H](CC(C)C)NC(=O)[C@H](Cc1c[nH]c2ccccc12)NC(=O)[C@H](CC(N)=O)NC(=O)[C@@H](NC(=O)[C@H](Cc1ccccc1)NC(=O)[C@H](CCC(=O)O)NC(=O)C(C)(C)NC(=O)[C@H](C)NC(=O)[C@H](C)NC(=O)[C@H](CCC(N)=O)NC(=O)[C@H](CCCCN)NC(=O)[C@H](CC(=O)O)NC(=O)[C@H](CC(C)C)NC(=O)[C@H](Cc1ccc(O)cc1)NC(=O)[C@@H](NC(=O)[C@H](CO)NC(=O)[C@H](Cc1ccc(O)cc1)NC(=O)[C@H](CC(=O)O)NC(=O)[C@H](CO)NC(=O)[C@@H](NC(=O)[C@H](Cc1ccccc1)NC(=O)[C@@H](NC(=O)CNC(=O)[C@H](CCC(=O)O)NC(=O)CSCC(=O)NCCn1[nH]c(=O)ccc1=O)[C@@H](C)O)[C@@H](C)O)[C@@H](C)CC)C(C)C)C(N)=O)C(=O)O [Compound 241]	1 to 10	100	10 to 100	46	> 1	–	–	–
CCCCCCCCCCCCCCCC(=O)N[C@@H](CCC(=O)NCCCC[C@H](NC(=O)[C@H](CO)NC(=O)[C@@H]1CCCN1C(=O)[C@@H]1CCCN1C(=O)[C@@H]1CCCN1C(=O)[C@H](C)NC(=O)CNC(=O)[C@H](CO)NC(=O)[C@H](CO)NC(=O)[C@@H]1CCCN1C(=O)CNC(=O)CNC(=O)[C@H](C)NC(=O)[C@H](CC(C)C)NC(=O)[C@H](CC(C)C)NC(=O)[C@H](Cc1c[nH]c2ccccc12)NC(=O)[C@H](CC(N)=O)NC(=O)[C@@H](NC(=O)[C@H](Cc1ccccc1)NC(=O)[C@H](CCC(=O)O)NC(=O)C(C)(C)NC(=O)[C@H](C)NC(=O)[C@H](C)NC(=O)[C@H](CCC(N)=O)NC(=O)[C@H](CCCCN)NC(=O)[C@H](CC(=O)O)NC(=O)[C@H](CC(C)C)NC(=O)[C@H](Cc1ccc(O)cc1)NC(=O)[C@@H](NC(=O)[C@H](CO)NC(=O)[C@H](Cc1ccc(O)cc1)NC(=O)[C@H](CC(=O)O)NC(=O)[C@H](CO)NC(=O)[C@@H](NC(=O)[C@H](Cc1ccccc1)NC(=O)[C@@H](NC(=O)CNC(=O)[C@H](CCC(=O)O)NC(=O)CCCC(=O)NCCN1CCOCC1=O)[C@@H](C)O)[C@@H](C)O)[C@@H](C)CC)C(C)C)C(N)=O)C(=O)O [Compound 243]	–	103	–	20	–	< 0.1	10 to 100	> 1
CCCCCCCCCCCCCCCC(=O)N[C@@H](CCC(=O)NCCCC[C@H](NC(=O)[C@H](CO)NC(=O)[C@@H]1CCCN1C(=O)[C@@H]1CCCN1C(=O)[C@@H]1CCCN1C(=O)[C@H](C)NC(=O)CNC(=O)[C@H](CO)NC(=O)[C@H](CO)NC(=O)[C@@H]1CCCN1C(=O)CNC(=O)CNC(=O)[C@H](C)NC(=O)[C@H](CC(C)C)NC(=O)[C@H](CC(C)C)NC(=O)[C@H](Cc1c[nH]c2ccccc12)NC(=O)[C@H](CC(N)=O)NC(=O)[C@@H](NC(=O)[C@H](Cc1ccccc1)NC(=O)[C@H](CCC(=O)O)NC(=O)C(C)(C)NC(=O)[C@H](C)NC(=O)[C@H](C)NC(=O)[C@H](CCC(N)=O)NC(=O)[C@H](CCCCN)NC(=O)[C@H](CC(=O)O)NC(=O)[C@H](CC(C)C)NC(=O)[C@H](Cc1ccc(O)cc1)NC(=O)[C@@H](NC(=O)[C@H](CO)NC(=O)[C@H](Cc1ccc(O)cc1)NC(=O)[C@H](CC(=O)O)NC(=O)[C@H](CO)NC(=O)[C@@H](NC(=O)[C@H](Cc1ccccc1)NC(=O)[C@@H](NC(=O)CNC(=O)[C@H](CCC(=O)O)NC(=O)C(C)(C)CC(=O)NCCN1CCOCC1=O)[C@@H](C)O)[C@@H](C)O)[C@@H](C)CC)C(C)C)C(N)=O)C(=O)O [Compound 244]	–	100	–	50	–	< 0.1	1 to 10	0.01 to 1
